In patent US20130217664A1, “NOVEL COMPOUNDS USEFUL FOR THE TREATMENT OF DEGENERATIVE AND INFLAMMATORY DISEASES” (priority 2012, published 2013):
Where two headings read alike, the source gives them in different places.

Key:
human TYK2 = target: T1, human TYK2 (Homo sapiens, UniProt P29597); test: TYK2 inhibition assay; assay type: biochemical; settings: recombinant human TYK2 catalytic domain, polyGT substrate
T1 construct: catalytic domain (amino acids 871-1187; catalog number 08-147); purchased Carna Biosciences 08-147
T1 sequence (P29597 871-1187): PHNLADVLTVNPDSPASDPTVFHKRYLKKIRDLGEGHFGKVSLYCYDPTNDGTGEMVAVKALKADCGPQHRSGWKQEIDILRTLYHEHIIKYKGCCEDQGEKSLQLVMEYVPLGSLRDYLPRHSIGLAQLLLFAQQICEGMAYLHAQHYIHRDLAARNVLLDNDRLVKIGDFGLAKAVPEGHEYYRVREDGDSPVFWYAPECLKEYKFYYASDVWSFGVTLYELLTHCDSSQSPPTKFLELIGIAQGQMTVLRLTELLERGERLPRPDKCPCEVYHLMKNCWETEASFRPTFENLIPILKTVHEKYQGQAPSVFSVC
Outline: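 Radiometric kinase reaction run 90 min at 30 °C, stopped with phosphoric acid, washed and scintillation-counted.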

[1] = system: pSTAT1(2)-luciferase reporter in HeLa cells triggered with human OSM; test: JAK-STAT signalling assay; assay type: cell-based; settings: read-out: JAK-STAT IC50
Experimental: JAK-STAT Signalling Assay
HeLa cells were maintained in Dulbecco's Modified Eagle's Medium (DMEM) containing 10% heat inactivated fetal calf serum, 100 U/mL penicillin and 100 μg/mL streptomycin. HeLa cells were used at 70% confluence for transfection. 20,000 cells in 87 μL cell culture medium were transiently transfected with 40 ng pSTAT1(2)-luciferase reporter (Panomics), 8 ng of LacZ reporter as internal control reporter and 52 ng of pBSK using 0.32 μL Jet-PEI (Polyplus) as transfection reagent per well in 96-well plate format. After overnight incubation at 37° C., 5% CO2, transfection medium was removed. 81 μL of DMEM+1.5% heat inactivated fetal calf serum was added. 9 μL compound at 10× concentration was added for 60 min and then 10 μL of human OSM (Peprotech) at 33 ng/mL final concentration.
After overnight incubation at 37° C., 5% CO2 cells were lysed by adding 100 μL lysis buffer/well (PBS, 0.9 mM CaCl2, 0.5 mM MgCl2, 10% Trehalose, 0.05% Tergitol NP9, 0.3% BSA).
40 μL of cell lysate was used to read β-galactosidase activity by adding 180 μL β-Gal solution (30 μL ONPG 4 mg/mL+150 μL β-Galactosidase buffer (0.06 M Na2HPO4, 0.04 M NaH2PO4, 1 mM MgCl2)) for 20 min.
Luciferase activity was measured using 40 μL cell lysate plus 40 μL of Steadylite as described by the manufacturer (Perkin Elmer), on the Envision (Perkin Elmer).
The positive and negative controls were used to calculate z′ and ‘percent inhibition’ (PIN) values.
Percentage inhibition=((fluorescence determined in the presence of vehicle−fluorescence determined for sample with test compound present)divided by(fluorescence determined in the presence of vehicle−fluorescence determined for sample without trigger))*100.
PIN values were plotted for compounds tested in dose-response and EC50 values were derived.

human JAK1 = target: T2, human JAK1 (Homo sapiens, UniProt P23458); test: JAK1 inhibition assay (polyGT substrate / Ulight-JAK1 peptide); assay type: biochemical; settings: recombinant human JAK1 catalytic domain; polyGT or Ulight-JAK1 peptide assay
T2 construct: catalytic domain, amino acids 866-1154; catalog number PV4774; purchased Invitrogen PV4774
Outline: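 Signal scaled between vehicle and 10 μM staurosporine. Radiometric polyGT reactions ran 45 min at 30 °C, counted after phosphoric-acid stop. Ulight peptide reactions ran 60 min at room temperature, fluorescence read after adding Eu-PT66 detection mix with EDTA.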

human JAK3 = target: T3, human JAK3 (Homo sapiens, UniProt P52333); test: JAK3 inhibition assay; assay type: biochemical; settings: recombinant human JAK3 catalytic domain; polyGT substrate
T3 construct: catalytic domain (amino acids 781-1124; catalog number PV3855); purchased Invitrogen PV3855
Outline: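 Radiometric kinase assay: 0.5 ng JAK3 with 2.5 μg polyGT in Tris pH 7.5/MgCl2 buffer, 1 μM ATP plus 0.25 μCi 33P-γ-ATP, 1% DMSO, 45 min at 30 °C, stopped with phosphoric acid.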

[2] = Homo sapiens, HeLa, HeLa cells, pSTAT1(2)-luciferase reporter, human OSM 33 ng/mL
[3] = HeLa cells, pSTAT1(2)-luciferase reporter, human OSM 33 ng/mL

T2 sequence (P23458 866-1154): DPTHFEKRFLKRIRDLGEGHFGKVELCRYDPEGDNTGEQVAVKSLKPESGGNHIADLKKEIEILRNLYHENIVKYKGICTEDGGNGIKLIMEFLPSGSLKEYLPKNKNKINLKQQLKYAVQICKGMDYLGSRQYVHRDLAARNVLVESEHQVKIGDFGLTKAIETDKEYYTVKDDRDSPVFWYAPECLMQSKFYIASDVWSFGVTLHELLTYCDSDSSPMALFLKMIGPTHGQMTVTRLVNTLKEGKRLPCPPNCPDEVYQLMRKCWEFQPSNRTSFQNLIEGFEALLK
T3 sequence (P52333 781-1124): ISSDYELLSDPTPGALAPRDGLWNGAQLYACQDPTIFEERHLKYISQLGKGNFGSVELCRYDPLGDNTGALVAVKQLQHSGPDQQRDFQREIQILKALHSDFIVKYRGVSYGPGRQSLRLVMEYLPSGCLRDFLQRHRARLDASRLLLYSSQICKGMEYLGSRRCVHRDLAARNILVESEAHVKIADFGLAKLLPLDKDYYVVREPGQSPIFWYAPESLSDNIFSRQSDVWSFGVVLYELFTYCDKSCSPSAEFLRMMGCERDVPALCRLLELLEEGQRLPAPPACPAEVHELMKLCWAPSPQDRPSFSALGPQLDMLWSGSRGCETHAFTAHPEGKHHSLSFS

| IC50 (human TYK2) | IC50 [1, 2] | IC50 (human JAK1) | IC50 (human JAK3) | IC50 [1, 3] | Compound | IC50 ([1]; Homo sapiens, HeLa) |
| --- | --- | --- | --- | --- | --- | --- |
| 0.01 to 100 nM | > 1000 nM | 0.01 to 100 nM | 0.01 to 100 nM | – | CCc1cc(C2=CCN(C(=O)NC#N)CC2)ccc1N(C)c1cc2c(cn1)ncn2C [Compound 203, N-cyano-4-(3-ethyl-4-(methyl(1-methyl-1H-imidazo[4,5-c]pyridin-6-yl)amino)phenyl)-5,6-dihydropyridine-1(2H)-carboxamide] | – |
| 0.01 to 100 nM | 1 to 500 nM | 0.01 to 100 nM | 0.01 to 100 nM | – | CCc1cc(C2=CCN(C(=O)NC)CC2)ccc1N(C)c1cc2c(cn1)ncn2C [Compound 204, 4-(3-ethyl-4-(methyl(1-methyl-1H-imidazo[4,5-c]pyridin-6-yl)amino)phenyl)-N-methyl-5,6-dihydropyridine-1(2H)-carboxamide] | – |
| 0.01 to 100 nM | 1 to 500 nM | 0.01 to 100 nM | 101 to 500 nM | – | CCc1cc(C2=CCN(C(=O)N3CCC3)CC2)ccc1N(C)c1cc2c(cn1)ncn2C [Compound 205, azetidin-1-yl(4-(3-ethyl-4-(methyl(1-methyl-1H-imidazo[4,5-c]pyridin-6-yl)amino)phenyl)-5,6-dihydropyridin-1(2H)-yl)methanone] | – |
| 0.01 to 100 nM | > 1000 nM | 0.01 to 100 nM | 101 to 500 nM | – | CCc1cc(C2=CCN(C(=O)N(C)CC)CC2)ccc1N(C)c1cc2c(cn1)ncn2C [Compound 206, N-ethyl-4-(3-ethyl-4-(methyl(1-methyl-1H-imidazo[4,5-c]pyridin-6-yl)amino)phenyl)-N-methyl-5,6-dihydropyridine-1(2H)-carboxamide] | – |
| 0.01 to 100 nM | 1 to 500 nM | 0.01 to 100 nM | 101 to 500 nM | – | CCc1cc(-c2cnn(Cc3ccc(OC)cc3)c2)ccc1N(C)c1cc2c(cn1)ncn2C [Compound 208, N-(2-ethyl-4-(1-(4-methoxybenzyl)-1H-pyrazol-4-yl)phenyl)-N,1-dimethyl-1H-imidazo[4,5-c]pyridin-6-amine] | – |
| 101 to 500 nM | 501 to 1000 nM | 0.01 to 100 nM | 101 to 500 nM | – | CCc1cc(-c2cnn(CC#N)c2)ccc1N(C)c1cc2c(cn1)ncn2C [Compound 209, 2-(4-(3-ethyl-4-(methyl(1-methyl-1H-imidazo[4,5-c]pyridin-6-yl)amino)phenyl)-1H-pyrazol-1-yl)acetonitrile] | – |
| 0.01 to 100 nM | 501 to 1000 nM | 0.01 to 100 nM | 501 to 1000 nM | – | CCc1cc(-c2cnc(NC)nc2)ccc1N(C)c1cc2c(cn1)ncn2C [Compound 211, N-(2-Ethyl-4-(2-(methylamino)pyrimidin-5-yl)phenyl)-N,1-dimethyl-1H-imidazo[4,5-d]pyridin-6-amine] | – |
| 101 to 500 nM | > 1000 nM | 0.01 to 100 nM | > 1000 nM | – | CCc1cc(-c2cnc(OC3COC3)nc2)ccc1N(C)c1cc2c(cn1)ncn2C [Compound 212, N-(2-Ethyl-4-(2-(oxetan-3-yloxy)pyrimidin-5-yl)phenyl)-N,1-dimethyl-1H-imidazo[4,5-c]pyridin-6-amine] | – |
| 0.01 to 100 nM | > 1000 nM | 0.01 to 100 nM | 101 to 500 nM | – | CCc1cc(C2=CCN(C(=O)NC3COC3)CC2)ccc1N(C)c1cc2c(cn1)ncn2C [Compound 215] | – |
| 101 to 500 nM | > 1000 nM | 0.01 to 100 nM | > 1000 nM | – | CCc1cc(-c2cnc(OCC#N)nc2)ccc1N(C)c1cc2c(cn1)ncn2C [Compound 217, 2-(5-(3-ethyl-4-(methyl(1-methyl-1H-imidazo[4,5-c]pyridin-6-yl)amino)phenyl)pyrimidin-2-yloxy)acetonitrile] | – |
| 501 to 1000 nM | > 1000 nM | 0.01 to 100 nM | > 1000 nM | – | CCc1cc(-c2cncc(S(C)(=O)=O)c2)ccc1N(C)c1cc2c(cn1)ncn2C [Compound 218, N-(2-ethyl-4-(5-(methylsulfonyl)pyridin-3-yl)phenyl)-N,1-dimethyl-1H-imidazo[4,5-c]pyridin-6-amine] | – |
| 0.01 to 100 nM | 1 to 500 nM | 0.01 to 100 nM | > 1000 nM | – | CCc1cc(-c2cnn(CCN3CCCC3)c2)ccc1N(C)c1cc2c(cn1)ncn2C [Compound 219, N-(2-ethyl-4-(1-(2-(pyrrolidin-1-yl)ethyl)-1H-pyrazol-4-yl)phenyl)-N,1-dimethyl-1H-imidazo[4,5-c]pyridin-6-amine] | – |
| 0.01 to 100 nM | 501 to 1000 nM | 0.01 to 100 nM | 101 to 500 nM | – | CCc1cc(-c2cnn(CC(=O)N(C)C)c2)ccc1N(C)c1cc2c(cn1)ncn2C [Compound 220, 2-(4-(3-ethyl-4-(methyl(1-methyl-1H-imidazo[4,5-c]pyridin-6-yl)amino)phenyl)-1H-pyrazol-1-yl)-N,N-dimethylacetamide] | – |
| 101 to 500 nM | > 1000 nM | 0.01 to 100 nM | > 1000 nM | – | CCc1cc(-c2cnn(CC(=O)C(C)(C)C)c2)ccc1N(C)c1cc2c(cn1)ncn2C [Compound 221, 1-(4-(3-ethyl-4-(methyl(1-methyl-1H-imidazo[4,5-c]pyridin-6-yl)amino)phenyl)-1H-pyrazol-1-yl)-3,3-dimethylbutan-2-one] | – |
| 0.01 to 100 nM | 1 to 500 nM | 0.01 to 100 nM | 101 to 500 nM | – | CCc1cc(-c2cnn(CC(N)=O)c2)ccc1N(C)c1cc2c(cn1)ncn2C [Compound 222, 2-(4-(3-Ethyl-4-(methyl(1-methyl-1H-imidazo[4,5-c]pyridin-6-yl)amino)phenyl)-1H-pyrazol-1-yl)acetamide] | – |
| 0.01 to 100 nM | – | 0.01 to 100 nM | 101 to 500 nM | 1 to 500 nM | CCC(=O)N1CCC(c2ccc(N(C)c3cc4c(cn3)ncn4C)c(CC)c2)CC1 [Compound 223, 1-(4-(3-ethyl-4-(methyl(1-methyl-1H-imidazo[4,5-c]pyridin-6-yl)amino)phenyl)piperidin-1-yl)propan-1-one] | – |
| 0.01 to 100 nM | – | 0.01 to 100 nM | 101 to 500 nM | 501 to 1000 nM | CCc1cc(C2CCN(C(=O)CC#N)CC2)ccc1N(C)c1cc2c(cn1)ncn2C [Compound 224, 3-(4-(3-ethyl-4-(methyl(1-methyl-1H-imidazo[4,5-c]pyridin-6-yl)amino)phenyl)piperidin-1-yl)-3-oxopropanenitrile] | – |
| 0.01 to 100 nM | – | 0.01 to 100 nM | 101 to 500 nM | > 1000 nM | CCc1cc(C2CCN(C(=O)COC)CC2)ccc1N(C)c1cc2c(cn1)ncn2C [Compound 226, 1-(4-(3-ethyl-4-(methyl(1-methyl-1H-imidazo[4,5-c]pyridin-6-yl)amino)phenyl)piperidin-1-yl)-2-methoxyethanone] | – |

| Compound | IC50 (human TYK2) | IC50 [1, 2] | IC50 (human JAK1) | IC50 (human JAK3) | IC50 [1, 3] | IC50 ([1]; Homo sapiens, HeLa) |
| --- | --- | --- | --- | --- | --- | --- |
| CCc1cc(C2=CCN(C(=O)N(C)CC#N)CC2)ccc1N(C)c1cc2c(cn1)ncn2C [Compound 207, N-(Cyanomethyl)-4-(3-ethyl-4-(methyl(1-methyl-1H-imidazo[4,5-c]pyridin-6-yl)amino)phenyl)-N-methyl-5,6-dihydropyridine-1(2H)-carboxamide] | 0.01 to 100 nM | – | 0.01 to 100 nM | 101 to 500 nM | – | 501 to 1000 nM |
| CCc1cc(C2=CCN(C(=O)OCC#N)CC2)ccc1N(C)c1cc2c(cn1)ncn2C [Compound 216, Cyanomethyl 4-(3-ethyl-4-(methyl(1-methyl-1H-imidazo[4,5-c]pyridin-6-yl)amino)phenyl)-5,6-dihydropyridine-1(2H)-carboxylate] | 0.01 to 100 nM | – | 0.01 to 100 nM | 101 to 500 nM | – | > 1000 nM |
